Laboratory results: patent US20220363709A1, “ECTONU[…] METHODS OF USE THEREOF” (priority 2019, published 2022)

Molecular target: T1, recombinant CD73 (Homo sapiens, UniProt P21589)
T1 construct: purchased R&D Systems 5795-EN-010
T1 sequence (P21589 27-547 limits assumed): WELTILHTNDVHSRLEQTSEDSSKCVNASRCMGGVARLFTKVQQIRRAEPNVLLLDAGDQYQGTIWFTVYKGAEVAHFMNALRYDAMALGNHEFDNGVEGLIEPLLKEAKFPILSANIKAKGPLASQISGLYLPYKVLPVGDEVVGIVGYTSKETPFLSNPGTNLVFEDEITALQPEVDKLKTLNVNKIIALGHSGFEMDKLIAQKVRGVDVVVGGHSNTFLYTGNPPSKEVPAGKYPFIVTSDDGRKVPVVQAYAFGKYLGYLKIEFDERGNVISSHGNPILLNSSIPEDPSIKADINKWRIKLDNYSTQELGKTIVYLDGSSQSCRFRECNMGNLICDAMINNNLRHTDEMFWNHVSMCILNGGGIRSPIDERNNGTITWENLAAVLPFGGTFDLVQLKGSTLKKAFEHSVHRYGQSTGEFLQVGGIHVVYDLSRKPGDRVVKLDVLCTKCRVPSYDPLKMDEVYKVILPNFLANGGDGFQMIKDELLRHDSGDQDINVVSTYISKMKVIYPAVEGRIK
Assay: Assay 1: Inhibition of the CD73 Enzyme In Vitro
Assay type: biochemical
Details: soluble recombinant CD73 0.5 nM, AMP 50 μM, 30 minutes at room temperature, Malachite Green, absorbance at 630 nm; read-out: Assay 1 CD73 IC50
Method: Serial dilutions of test compounds were incubated with recombinant CD73 and AMP in reaction buffer (25 mM Tris HCl pH7.5, 5 mM MgCl2, 50 mM NaCl, 0.25 mM DTT, 0.005% Triton X-100). The final reaction volume was 25 μL and the final concentrations of recombinant CD73 and AMP were 0.5 nM and 50 μM, respectively. […] After 5 minutes at room temperature, absorbance at 630 nm was determined on a microplate spectrophotometer. The concentration of inorganic phosphate was determined using a phosphate standard curve.
ND indicates not determined.

SMILES	IC50 [nM]
Nc1nc(Cl)nc2c1ncn2[C@@H]1O[C@H](COC(Cc2ccc(-c3ccccc3)cc2)(C(=O)O)c2cscn2)[C@@H](O)[C@H]1O (mixture of isomers) [Example 1, 3-([1,1′-biphenyl]-4-yl)-2-(((2R,3S,4R,5R)-5-(6-amino-2-chloro-9H-purin-9-yl)-3,4-dihydroxytetrahydrofuran-2-yl)methoxy)-2-(thiazol-4-yl)propanoic acid]	99
N#Cc1ccccc1-c1ccc(CC(OC[C@H]2O[C@@H](n3cnc4c(N)nc(Cl)nc43)[C@@H](F)[C@@H]2O)(C(=O)O)c2cscn2)cc1 (mixture of isomers) [Example 12, 2-(((2R3R,4S,5R)-5-(6-amino-2-chloro-9H-purin-9-yl)-4-fluoro-3-hydroxytetrahydrofuran-2-yl)methoxy)-3-(2′-cyano-[1,1′-biphenyl]-4-yl)-2-(thiazol-4-yl)propanoic acid]	433
Nc1nc(Cl)nc2c1ncn2[C@@H]1O[C@H](COC(Cc2ccc(-c3ccccc3C(=O)O)cc2)(C(=O)O)c2cscn2)[C@@H](O)[C@@H]1F (mixture of isomers) [Example 13, 4′-(2-(((2R,3R,4S,5R)-5-(6-amino-2-chloro-9H-purin-9-yl)-4-fluoro-3-hydroxytetrahydrofuran-2-yl)methoxy)-2-carboxy-2-(thiazol-4-yl)ethyl)-[1,1′-biphenyl]-2-carboxylic acid]	218
Nc1nc(Cl)nc2c1ncn2[C@@H]1O[C@H](COC(C(=O)O)c2cscn2)[C@@H](O)[C@@H]1F (mixture of isomers) [Example 14, 2-(((2R3R,4S,5R)-5-(6-amino-2-chloro-9H-purin-9-yl)-4-fluoro-3-hydroxytetrahydrofuran-2-yl)methoxy)-2-(thiazol-4-yl)acetic acid]	22100
Nc1nc(Cl)nc2c1ncn2[C@@H]1O[C@H](COC(Cc2cccc(C(=O)O)c2)(C(=O)O)c2cscn2)[C@@H](O)[C@@H]1F (mixture of isomers) [Example 17, 3-(2-(((2R,3R,4S,5R)-5-(6-amino-2-chloro-9H-purin-9-yl)-4-fluoro-3-hydroxytetrahydrofuran-2-yl)methoxy)-2-carboxy-2-(thiazol-4-yl)ethyl)benzoic acid]	740
Nc1nc(Cl)nc2c1ncn2[C@@H]1O[C@H](COC(Cc2ccc(-c3ccccc3CC(=O)O)cc2)(C(=O)O)c2cscn2)[C@@H](O)[C@@H]1F (mixture of isomers) [Example 18, 2-(((2R3R,4S,5R)-5-(6-amino-2-chloro-9H-purin-9-yl)-4-fluoro-3-hydroxytetrahydrofuran-2-yl)methoxy)-3-(2′-(carboxymethyl)-[1,1′-biphenyl]-4-yl)-2-(thiazol-4-yl)propanoic acid]	182
CCCCOc1nc(Cl)nc2c1ncn2[C@@H]1O[C@H](COC(Cc2ccccc2)(C(=O)O)c2cscn2)[C@@H](O)[C@@H]1F (mixture of isomers) [Example 23, 2-(((2R,3R,4S,5R)-5-(6-butoxy-2-chloro-9H-purin-9-yl)-4-fluoro-3-hydroxytetrahydrofuran-2-yl)methoxy)-3-phenyl-2-(thiazol-4-yl)propanoic acid]	3420
CCCNc1nc(Cl)nc2c1ncn2[C@@H]1O[C@H](COC(Cc2ccccc2)(C(=O)O)c2cscn2)[C@@H](O)[C@@H]1F (mixture of isomers) [Example 24, 2-(((2R,3R4S,5R)-5-(2-chloro-6-(propylamino)-9H-purin-9-yl)-4-fluoro-3-hydroxytetrahydrofuran-2-yl)methoxy)-3-phenyl-2-(thiazol-4-yl)propanoic acid]	1240
CCCNc1nc(Cl)nc2c1ncn2[C@@H]1O[C@H](COC(Cc2ccc(-c3ccccc3C(=O)O)cc2)(C(=O)O)c2cscn2)[C@@H](O)[C@@H]1F (mixture of isomers) [Example 25, 4′-(2-carboxy-2-(((2R,3R,4S,5R)-5-(2-chloro-6-(propylamino)-9H-purin-9-yl)-4-fluoro-3-hydroxytetrahydrofuran-2-yl)methoxy)-2-(thiazol-4-yl)ethyl)-[1,1′-biphenyl]-2-carboxylic acid]	382
Nc1nc(Cl)nc2c1ncn2[C@@H]1O[C@H](COC(Cc2ccccc2)(C(=O)O)c2cscn2)[C@@H](O)[C@H]1O (mixture of isomers) [Example 26, 2-(((2R,3S,4R,5R)-5-(6-amino-2-chloro-9H-purin-9-yl)-3,4-dihydroxytetrahydrofuran-2-yl)methoxy)-3-phenyl-2-(thiazol-4-yl)propanoic acid]	400
Nc1nc(Cl)nc2c1ncn2[C@@H]1O[C@H](COC(Cc2ccc(-c3ccccc3)cc2)(C(=O)O)c2csc(Cl)n2)[C@@H](O)[C@H]1O (mixture of isomers) [Example 27, 3-([1,1′-biphenyl]-4-yl)-2-(((2R,3S,4R,5R)-5-(6-amino-2-chloro-9H-purin-9-yl)-3,4-dihydroxytetrahydrofuran-2-yl)methoxy)-2-(2-chlorothiazol-4-yl)propanoic acid]	106
Nc1nc(Cl)nc2c1ncn2[C@@H]1O[C@H](COC(Cc2ccccc2)(C(=O)O)c2cc[nH]n2)[C@@H](O)[C@H]1O (mixture of isomers) [Example 32, 2-(((2R,3S,4R,5R)-5-(6-amino-2-chloro-9H-purin-9-yl)-3,4-dihydroxytetrahydrofuran-2-yl)methoxy)-3-phenyl-2-(1H-pyrazol-3-yl)propanoic acid]	2060
Cc1cc(C(Cc2ccccc2)(OC[C@H]2O[C@@H](n3cnc4c(N)nc(Cl)nc43)[C@H](O)[C@@H]2O)C(=O)O)no1 (mixture of isomers) [Example 37, 2-(((2R,3S,4R,5R)-5-(6-amino-2-chloro-9H-purin-9-yl)-3,4-dihydroxytetrahydrofuran-2-yl)methoxy)-2-(5-methylisoxazol-3-yl)-3-phenylpropanoic acid]	8730
CNS(=O)(=O)c1ccccc1-c1ccc(CC(OC[C@H]2O[C@@H](n3cnc4c(N)nc(Cl)nc43)[C@H](O)[C@@H]2O)(C(=O)O)c2cscn2)cc1 (mixture of isomers) [Example 38, 2-(((2R,3S,4R,5R)-5-(6-amino-2-chloro-9H-purin-9-yl)-3,4-dihydroxytetrahydrofuran-2-yl)methoxy)-3-(2′-(N-methylsulfamoyl)-[1,1′-biphenyl]-4-yl)-2-(thiazol-4-yl)propanoic acid]	42
CCN(CC)C(=O)c1ccccc1-c1ccc(CC(OC[C@H]2O[C@@H](n3cnc4c(N)nc(Cl)nc43)[C@H](O)[C@@H]2O)(C(=O)O)c2cscn2)cc1 (mixture of isomers) [Example 45, 2-(((2R,3S,4R,5R)-5-(6-amino-2-chloro-9H-purin-9-yl)-3,4-dihydroxytetrahydrofuran-2-yl)methoxy)-3-(2′-(diethylcarbamoyl)-[1,1′-biphenyl]-4-yl)-2-(thiazol-4-yl)propanoic acid]	833
Nc1nc(Cl)nc2c1ncn2[C@@H]1O[C@H](COC(Cc2ccc(-c3ccccc3C(=O)O)cc2)(C(=O)O)c2ccsc2)[C@@H](O)[C@H]1O (mixture of isomers) [Example 49, 4′-(2-(((2R,3S,4R,5R)-5-(6-amino-2-chloro-9H-purin-9-yl)-3,4-dihydroxytetrahydrofuran-2-yl)methoxy)-2-carboxy-2-(thiophen-3-yl)ethyl)-[1,1′-biphenyl]-2-carboxylic acid]	2270
Nc1nc(Cl)nc2c1ncn2[C@@H]1O[C@H](CO[C@](Cc2ccc(-c3ccc(C(=O)O)cc3)cc2)(C(=O)O)c2cscn2)[C@@H](O)[C@H]1O (single isomer, unassigned) [Example 2]	64
Nc1nc(Cl)nc2c1ncn2[C@@H]1O[C@H](CO[C@@](Cc2ccc(-c3ccc(C(=O)O)cc3)cc2)(C(=O)O)c2cscn2)[C@@H](O)[C@H]1O (single isomer, unassigned) [Example 3]	1250
N#CCc1ccccc1-c1ccc(C[C@@](OC[C@H]2O[C@@H](n3cnc4c(N)nc(Cl)nc43)[C@H](O)[C@@H]2O)(C(=O)O)c2cscn2)cc1 (single isomer, unassigned) [Example 4]	35
N#CCc1ccccc1-c1ccc(C[C@](OC[C@H]2O[C@@H](n3cnc4c(N)nc(Cl)nc43)[C@H](O)[C@@H]2O)(C(=O)O)c2cscn2)cc1 (single isomer, unassigned) [Example 5]	502
Nc1nc(Cl)nc2c1ncn2[C@@H]1O[C@H](CO[C@](Cc2ccc(-c3ccccc3CC(=O)O)cc2)(C(=O)O)c2cscn2)[C@@H](O)[C@H]1O (single isomer, unassigned) [Example 6]	39
Nc1nc(Cl)nc2c1ncn2[C@@H]1O[C@H](CO[C@@](Cc2ccc(-c3ccccc3CC(=O)O)cc2)(C(=O)O)c2cscn2)[C@@H](O)[C@H]1O (single isomer, unassigned) [Example 7]	1030
Nc1nc(Cl)nc2c1ncn2[C@@H]1O[C@H](CO[C@](Cc2ccc(-c3ccccc3)cc2)(C(=O)O)c2cscn2)[C@@H](O)[C@@H]1F (single isomer, unassigned) [Example 8]	241
